In brackets after ≈: the same amount, converted by molar mass. Counter-ions that a name gives are not always drawn.
Experiments:
[1] = Determination of the solubility (suspension shaken 24 h at room temperature, HPLC); format: physicochemical; conditions: for solubility at 24 h: thermodynamic from solid
Experimental: […] This suspension is shaken at room temperature for 24 h. After ultracentrifugation at 224 000 g for 30 min, the supernatant is diluted with DMSO and analysed by HPLC. A two-point calibration plot of the test compound in DMSO is used for quantification.
Agilent 1100 with DAD (G1315A), quat. pump (G1311A), autosampler CTC HTS PAL, degasser (G1322A) and column thermostat (G1316A); column: Zorbax Extend-C18 3.5μ; temperature: 40° C.; eluent A: water+5 ml of perchloric acid/liter, eluent B: acetonitrile; flow rate: 0.7 ml/min; gradient: 0-0.5 min 98% A, 2% B; ramp 0.5-4.5 min 10% A, 90% B; 4.5-6 min 10% A, 90% B; ramp 6.5-6.7 min 98% A, 2% B; 6.7-7.5 min 98% A, 2% B.

[2] = Stability in buffer at various pH values (HPLC, 37° C., 24 h); format: physicochemical
Experimental: 0.3 mg of the test substance is weighed into a 2 ml HPLC vial and 0.5 ml of acetonitrile is added. The substance is dissolved by putting the sample vessel in an ultrasonic bath for about 10 seconds. Then 0.5 ml of the respective buffer solution is added, and the sample is again treated in the ultrasonic bath.
• pH 4.0:1 liter of Millipore water is adjusted to pH 4.0 with 1 N hydrochloric acid; • pH 7.4: 90 g of sodium chloride, 13.61 g of potassium dihydrogen phosphate and 83.35 g of 1 M sodium hydroxide solution are made up to 1 liter with Millipore water and then diluted 1:10.
5 μl portions of the test solution are analysed by HPLC for their content of unchanged test substance every hour over a period of 24 hours at 37° C. The percentage areas of the appropriate peaks are used for quantification.
Agilent 1100 with DAD (G1314A), binary pump (G1312A), autosampler (G1329A), column oven (G1316A), thermostat (G1330A); column: Kromasil 100 C18, 125 mm×4.6 mm, 5 μm; column temperature: 30° C.; eluent A: water+5 ml of perchloric acid/liter, eluent B: acetonitrile.
The ratios of the peak areas (F) at the respective time points in relation to the peak areas at the starting time are shown in Table 2 for representative exemplary embodiments: […]

[3] = dilute hydrochloric acid (pH 4), pH 4, aqueous buffer, room temperature, 24 h
[4] = buffer pH 4, 37° C., hydrobromide

Row | SMILES | solubility at 24 h [1, 3] [µg/mL] | % test substance after 4 h [F(t = 4 h) × 100/F(t = 0 h)] ([2]; buffer pH 4, 37° C.) [%] | % Test substance after 24 h [F(t = 24 h) × 100/F(t = 0 h)] ([2]; buffer pH 4, 37° C.) [%] | % test substance after 4 h [F(t = 4 h) × 100/F(t = 0 h)] ([2]; buffer pH 7.4, 37° C.) [%] | % Test substance after 24 h [F(t = 24 h) × 100/F(t = 0 h)] ([2]; buffer pH 7.4, 37° C.) [%] | % test substance after 4 h [F(t = 4 h) × 100/F(t = 0 h)] ([2]; buffer pH 7.4, 37° C., hydrobromide) [%] | Solubility ([1]; dilute hydrochloric acid (pH 4), room temperature, 24 h, hydrochloride) [mg/L] | % test substance after 4 h [F(t = 4 h) × 100/F(t = 0 h)] ([2]; buffer pH 7.4, 37° C., hydrochloride) [%] | solubility at 24 h ([1]; 5% dextrose adjusted to pH 4 with hydrochloric acid, pH 4, saline or isotonic) [µg/mL] | % test substance after 4 h [F(t = 4 h) × 100/F(t = 0 h)] [2, 4] [%] | % Test substance after 24 h [F(t = 24 h) × 100/F(t = 0 h)] [2, 4] [%]
1 | NCCCC[C@H](N)C(=O)OCC(=O)N(C[C@H]1CN(c2ccc(N3CCOCC3=O)cc2)C(=O)O1)C(=O)c1ccc(Cl)s1 [Example 7, 2-[[(5-Chloro-2-thienyl)carbonyl]({(5S)-2-oxo-3-[4-(3-oxomorpholin-4-yl)phenyl]-1,3-oxazolidin-5-yl}methyl)amino]-2-oxoethyl L-lysinate dihydrochloride] | 340 | 100 | 99 | 48 | 3 |  |  |  |  |  | 
2 | N[C@@H](Cc1c[nH]cn1)C(=O)OCC(=O)N(C[C@H]1CN(c2ccc(N3CCOCC3=O)cc2)C(=O)O1)C(=O)c1ccc(Cl)s1 [Example 8, 2-[[(5-Chloro-2-thienyl)carbonyl]({(5S)-2-oxo-3-[4-(3-oxomorpholin-4-yl)phenyl]-1,3-oxazolidin-5-yl}methyl)amino]-2-oxoethyl L-histidinate dihydrochloride] |  | 99 | 81 | 2 | 0 |  |  |  |  |  | 
3 | NCC(=O)OCC(=O)N(C[C@H]1CN(c2ccc(N3CCOCC3=O)cc2)C(=O)O1)C(=O)c1ccc(Cl)s1 [Example 1, 2-[[(5-Chloro-2-thienyl)carbonyl]({(5S)-2-oxo-3-[4-(3-oxomorpholin-4-yl)phenyl]-1,3-oxazolidin-5-yl}methyl)amino]-2-oxoethyl glycinate hydrochloride] | 320 | 100 | 99 | 49 | 3 |  |  |  |  |  | 
4 | CC(C)[C@H](N)C(=O)SCC(=O)N(C[C@H]1CN(c2ccc(N3CCOCC3=O)cc2)C(=O)O1)C(=O)c1ccc(Cl)s1 [Example 10, S-{2-[[(5-Chloro-2-thienyl)carbonyl]({(5S)-2-oxo-3-[4-(3-oxomorpholin-4-yl)phenyl]-1,3-oxazolidin-5-yl}methyl)amino]-2-oxoethyl}(2S)-2-amino-3-methylbutanethioate hydrobromide] | 680 | 100 | 99 |  | 0 | 8 |  |  |  |  | 
5 | CC(C)[C@H](N)C(=O)SCC(=O)N(C[C@H]1CN(c2ccc(N3CCOCC3=O)cc2)C(=O)O1)C(=O)c1ccc(Cl)s1 [Example 11, S-{2-[[(5-Chloro-2-thienyl)carbonyl]({(5S)-2-oxo-3-[4-(3-oxomorpholin-4-yl)phenyl]-1,3-oxazolidin-5-yl}methyl)amino]-2-oxoethyl}(2S)-2-amino-3-methylbutanethioate hydrochloride] |  |  |  |  |  |  | 960 | 10 |  |  | 
6 | CC(C)(N)C(=O)OCC(=O)N(C[C@H]1CN(c2ccc(N3CCOCC3=O)cc2)C(=O)O1)C(=O)c1ccc(Cl)s1 [Example 2, 2-[[(5-Chloro-2-thienyl)carbonyl]({(5S)-2-oxo-3-[4-(3-oxomorpholin-4-yl)phenyl]-1,3-oxazolidin-5-yl}methyl)amino]-2-oxoethyl-2-methylalaninate hydrochloride] | > 500 | 100 | 100 | 96 | 80 |  |  |  |  |  | 
7 | NCCCCCC(=O)N(C[C@H]1CN(c2ccc(N3CCOCC3=O)cc2)C(=O)O1)C(=O)c1ccc(Cl)s1 [Example 21, N-(6-Aminohexanoyl)-5-chloro-N-({(5S)-2-oxo-3-[4-(3-oxomorpholin-4-yl)phenyl]-1,3-oxazolidin-5-yl}methyl)thiophene-2-carboxamide hydrochloride] |  | 100 | 100 | 92 | 66 |  |  |  | > 3000 |  | 
8 | CC(C)[C@H](N)C(=O)OCC(=O)N(C[C@H]1CN(c2ccc(N3CCOCC3=O)cc2)C(=O)O1)C(=O)c1ccc(Cl)s1 [Example 3, 2-[[(5-Chloro-2-thienyl)carbonyl]({(5S)-2-oxo-3-[4-(3-oxomorpholin-4-yl)phenyl]-1,3-oxazolidin-5-yl}methyl)amino]-2-oxoethyl L-valinate hydrochloride] | 340 | 100 | 99 | 88 | 48 |  |  |  |  |  | 
9 | O=C(OCC(=O)N(C[C@H]1CN(c2ccc(N3CCOCC3=O)cc2)C(=O)O1)C(=O)c1ccc(Cl)s1)[C@@H]1CCCN1 [Example 4, 2-[[(5-Chloro-2-thienyl)carbonyl] ({(5S)-2-oxo-3-[4-(3-oxomorpholin-4-yl)phenyl]-1,3-oxazolidin-5-yl}methyl)amino]-2-oxoethyl L-prolinate hydrochloride] | 480 | 100 | 100 | 31 | 0 |  |  |  |  |  | 
10 | CNCC(=O)OCC(=O)N(C[C@H]1CN(c2ccc(N3CCOCC3=O)cc2)C(=O)O1)C(=O)c1ccc(Cl)s1 [Example 5, 2-[[(5-Chloro-2-thienyl)carbonyl]({(5S)-2-oxo-3-[4-(3-oxomorpholin-4-yl)phenyl]-1,3-oxazolidin-5-yl}methyl)amino]-2-oxoethyl N-methylglycinate hydrochloride] | 330 | 100 | 94 | 68 | 14 |  |  |  |  |  | 
11 | O=C(NC[C@H]1CN(c2ccc(N3CCOCC3=O)cc2)C(=O)O1)c1ccc(Cl)s1 [compound (A), 5-Chloro-N-({(5S)-2-oxo-3-[4-(3-oxomorpholin-4-yl)phenyl]-1,3-oxazolidin-5-yl}methyl)thiophene-2-carboxamide, reference compound] | 8.1 (≈ 18.6 µM) |  |  |  |  |  |  |  |  |  | 
12 | CNCCCCCC(=O)N(C[C@H]1CN(c2ccc(N3CCOCC3=O)cc2)C(=O)O1)C(=O)c1ccc(Cl)s1 [Example 18, 5-Chloro-N-[6-(methylamino)hexanoyl]-N-({(5S)-2-oxo-3-[4-(3-oxomorpholin-4-yl)phenyl]-1,3-oxazolidin-5-yl}methyl)thiophene-2-carboxamide hydrochloride] |  | 100 | 99 |  |  |  |  |  |  |  | 
13 | NCCCC(=O)N(C[C@H]1CN(c2ccc(N3CCOCC3=O)cc2)C(=O)O1)C(=O)c1ccc(Cl)s1 [Example 19, N-(4-Aminobutanoyl)-5-chloro-N-({(5S)-2-oxo-3-[4-(3-oxomorpholin-4-yl)phenyl]-1,3-oxazolidin-5-yl}methyl)thiophene-2-carboxamide hydrochloride] |  | 100 | 97 | 0 | 0 |  |  |  |  |  | 
14 | CNCCCC(=O)N(C[C@H]1CN(c2ccc(N3CCOCC3=O)cc2)C(=O)O1)C(=O)c1ccc(Cl)s1 [Example 12, 5-Chloro-N-[4-(methylamino)butanoyl]-N-({(5S)-2-oxo-3-[4-(3-oxomorpholin-4-yl)phenyl]-1,3-oxazolidin-5-yl}methyl)thiophene-2-carboxamide hydrobromide] | 350 |  |  | 0 | 0 |  |  |  |  | 100 | 98
15 | CNCCCCC(=O)N(C[C@H]1CN(c2ccc(N3CCOCC3=O)cc2)C(=O)O1)C(=O)c1ccc(Cl)s1 [Example 14, 5-Chloro-N-[5-(methylamino)pentanoyl]-N-({(5S)-2-oxo-3-[4-(3-oxomorpholin-4-yl)phenyl]-1,3-oxazolidin-5-yl}methyl)thiophene-2-carboxamide hydrobromide] |  |  |  | 0 | 0 |  |  |  |  | 57 | 0

Source: patent publication US8101601B2, “Aminoacyl prodrug derivatives and medicaments for the treatment of thromboembolitic disorders” (Bayer Pharma Aktiengesellschaft, priority 2007, dated 2012)
